Measured values taken from patent US4983633A, “Amide compounds, process for preparing the same, and composition for activating gastric motor function containing the same” (Hokuriku Pharmaceutical Co., Ltd., priority 1987, dated 1991).
Where “and” joins values, the source holds several entries; their conditions need not be identical. Equal entries are not always repeated. Structures can show the parent of a compound that is named as a salt.

Legend:
[1] = test system: dopamine-induced suppression of gastrointestinal transit; assay: Improving effects on dopamine-induced suppression of gastrointestinal transit in mice (charcoal meal); format: in vivo, mice (male ddY); conditions: for Improvement (%) / Gastrointestinal transit (% ± S.E.): test compound 30 mg/kg p.o. + dopamine 2 mg/kg i.p.; for Gastrointestinal transit (% ± S.E.): 20 min after charcoal meal; for improvement of gastrointestinal transit inhibited by dopamine (in words): 30 mg/kg p.o.
Protocol: Improving effects of the test compound on dopamine-induced suppression of gastrointestinal transit in mice
Male mice of the ddY strain weighing about 22 g were fasted overnight and the test compounds (suspended in 0.5% carboxymethylcellulose) were administered orally. Thirty minutes later dopamine (2 mg/kg dissolved in saline) or saline only was administered intraperitoneally followed immediately by the oral administration of charcoal meal (5% charcoal powder suspended in 10% gum arabic). Twenty minutes later the animals were sacrificed and the digestive tracts were isolated from the stomach to the cecum. The gastrointestinal transit was determined by calculating the total intestinal length between the pylorus and the cecum and the length over which charcoal meal was carried from the pylorus. Statistical analysis was carried out by Student's t-test for unpaired observations.

[2] = test system: isolated guinea pig ileum; assay: Contractile effects of the test compounds in isolated guinea pig ileum; design: species or system guinea pig (male Hartley); conditions: for EC50: Cavia porcellus, isolated ileum strips, 37° C, relative to 10^-6 M acetylcholine-induced contraction, read-out: ED50 (dose which evoked 50% of the acetylcholine-induced contraction)
Protocol: Contractile effects of the test compounds in isolated guinea pig ileum
Male Hartley guinea-pigs weighing about 450 g were sacrificed and the ileum was excised. Then intact strips 1.5-2.0 cm long were prepared. These preparations were suspended vertically in an organ bath filled with Krebs-Henseleit's solution at 37° C. which was gassed with 95% O2 and 5% CO2. Rhythmic contractions of the preparations were isotonically measured. Effects of the test compounds were assessed as the relative percentage of a test compound against 10^-6 M acetylcholine-induced contractions. Results were as follows (Table 1).
*The dose which evoked 50% of the acetylcholineinduced contraction.

[3] = test system: apomorphine-induced emesis; assay: Suppressing effects on apomorphine-induced emesis in beagle dogs; format: in vivo, beagle dogs (male); conditions: apomorphine s.c., observed for sixty minutes
Protocol: Suppressing effects of the test compounds on apomorphine-induced emesis in beagle dogs
Male beagle dogs weighing about 8 kg were fasted overnight. The test compounds (suspended or dissolved in 0.5% CMC) were administered orally and the dogs fed fortyfive minutes later.

[4] = Acute toxicological study in mice (up and down method); conditions: mouse, in vivo; intravenous, male ICR mice aged 5 weeks
Protocol: Acute toxicological study in mice
Male ICR mice aged 5 weeks were used for each determination. The test compounds (2-4 different doses) were intravenously administered and LD50 values were calculated using the up and down method. Results were as follows (Table 3).

SMILES | EC50 [2] | LD50 [4] | also measured
COc1ccc(C(=O)NCc2ccc(OCCN(C)C)cc2)cc1OC.Cl [Compound 2, N-[4-[2-(Dimethylamino)ethoxy]benzyl]-3,4-dimethoxybenzamide hydrochloride] | 0.6 µM | 191 mg/kg | Improvement (%) [1]: 56.5%; Gastrointestinal transit (% ± S.E.) [1]: 43.9 ± 2.8%; times stronger contractile effect than metoclopramide.HCl ([2]; isolated guinea pig ileum, compared with metoclopramide.HCl): about 10 times; times stronger contractile effect than trimethobenzamide.HCl ([2]; isolated guinea pig ileum, compared with trimethobenzamide.HCl): about 2.5 times; antiemetic effect ([3]; 30 mg/kg p.o.): slight antiemetic effect
O=C(NCc1ccc(OCCN2CCCC2)cc1)c1ccc2c(c1)OCO2 [Compound 3, 3,4-Methylenedioxy-N-[4-[2-(1-pyrrolidinyl)ethoxy]benzyl]benzamide] | 0.46 µM | 62.6 mg/kg | Improvement (%) [1]: 56.9%; Gastrointestinal transit (% ± S.E.) [1]: 44.0 ± 4.7%
COc1cc(N)c(Cl)cc1C(=O)NCc1ccc(OCCN(C)C)cc1 [Compound 5, 4-Amino-5-chloro-N-[4-[2-(dimethylamino)ethoxy]benzyl]-2-methoxybenzamide] | 0.18 µM | 94 mg/kg | 
COc1ccc(S(N)(=O)=O)cc1C(=O)NCc1ccc(OCCN(C)C)cc1 [Compound 6, N-[4-[2-(Dimethylamino)ethoxy]benzyl]-2-methoxy-5-sulfamoylbenzamide] | 0.4 µM | 39.2 mg/kg | 
COc1ccc(S(=O)(=O)N(C)C)cc1C(=O)NCc1ccc(OCCN(C)C)cc1 [Compound 7, N-[4-[2-(Dimethylamino)ethoxy]benzyl]-5-dimethylaminosulfonyl 2-methoxybenzamide] | 0.3 µM |  | 
CN(C)CCOc1ccc(CNC(=O)c2ccc(S(N)(=O)=O)cc2)cc1 [Compound 8, N-[4-[2-(Dimethylamino)ethoxy]benzyl]-4-sulfamoylbenzamide] | 1.6 µM | 85.1 mg/kg | 
COc1cc(OC)cc(C(=O)NCc2ccc(OCCN(C)C)cc2)c1 [Compound 14] | 0.69 µM |  | 
COc1ccc(C(=O)NCc2ccc(OCCN3CCCC3)cc2)cc1OC [Compound 18, 3,4-Dimethoxy-N-[4-[2-(1-pyrrolidinyl)ethoxy]benzyl]benzamide] |  |  | Improvement (%) [1]: 71.7%; Gastrointestinal transit (% ± S.E.) [1]: 43.0 ± 6.5%
COc1ccc(C(=O)NCc2ccc(OCCN3CCCCC3)cc2)cc1OC [Compound 19] | 0.42 µM | 70.8 mg/kg | 
CN(C)CCOc1ccc(CNC(=O)c2ccccc2)cc1 [Compound 20] | 0.5 µM |  | 
COc1cccc(C(=O)NCc2ccc(OCCN(C)C)cc2)c1 [Compound 23] | 0.3 µM | 74.1 mg/kg | 
COc1ccc(C(=O)NCc2ccc(OCCN(C)C)cc2)cc1 [Compound 24] | 0.61 µM |  | 
CCOc1ccc(C(=O)NCc2ccc(OCCN(C)C)cc2)cc1 [Compound 25] | 0.68 µM | 87.1 mg/kg | 
CCOc1ccc(C(=O)NCc2ccc(OCCN(C)C)cc2)cc1OC [Compound 31, N-[4-[2-(dimethylamino)ethoxy]benzyl]-4-ethoxy-3-methoxybenzamide] | 0.42 µM | 105 mg/kg | Improvement (%) [1]: 58.5%; Gastrointestinal transit (% ± S.E.) [1]: 45.2 ± 3.0%
CCOc1ccc(C(=O)NCc2ccc(OCCN(C)C)cc2)cc1OCC [Compound 32] | 0.14 µM | 112 mg/kg | 
COc1cc(N)c(Cl)cc1C(=O)NCc1ccc(OCCN2CCCC2)cc1 [Compound 34, 4-amino-5-chloro-2-methoxy-N-[4-[2-(1-pyrrolidinyl)ethoxy]benzyl] benzamide] | 0.12 µM | 44.7 mg/kg | Improvement (%) [1]: 63.4%; Gastrointestinal transit (% ± S.E.) [1]: 46.6 ± 3.4%
COc1cc(N)c(Cl)cc1C(=O)NCc1ccc(OCCN2CCCCC2)cc1 [Compound 35] | 0.49 µM | 61.7 mg/kg | 
CNS(=O)(=O)c1ccc(OC)c(C(=O)NCc2ccc(OCCN(C)C)cc2)c1 [Compound 36] | 0.34 µM |  | 
COc1ccc(S(N)(=O)=O)cc1C(=O)NCc1ccc(OCCN2CCCC2)cc1 [Compound 37] | 0.18 µM |  | 
COc1ccc(S(N)(=O)=O)cc1C(=O)NCc1ccc(OCCN2CCCCC2)cc1 [Compound 38] | 0.35 µM |  | 

SMILES | EC50 [2] | LD50 [4] | also measured
CN(C)CCOc1ccc(CNC(=O)c2ccc(Cl)c(S(=O)(=O)N(C)C)c2)cc1 [Compound 39] | 0.39 µM |  | 
CN(C)S(=O)(=O)c1cc(C(=O)NCc2ccc(OCCN3CCCC3)cc2)ccc1Cl [Compound 40] | 0.6 µM |  | 
COc1cc(N)c(S(N)(=O)=O)cc1C(=O)NCc1ccc(OCCN(C)C)cc1 [Compound 41] | 0.13 µM |  | 
CNS(=O)(=O)c1ccc(OC)c(C(=O)NCc2ccc(OCCN3CCCC3)cc2)c1 [Compound 43] | < 0.1 µM |  | 
CN(C)CCOc1ccc(CNC(=O)c2cccc(Cl)c2)cc1 [Compound 45] | 4.6 µM |  | 
Cc1cccc(C(=O)NCc2ccc(OCCN(C)C)cc2)c1 [Compound 47] | 3 µM | 68.5 mg/kg | 
Cc1ccc(C(=O)NCc2ccc(OCCN(C)C)cc2)cc1 [Compound 48] | 0.51 µM | 83.2 mg/kg | 
CN(C)CCOc1ccc(CNC(=O)c2cccc([N+](=O)[O-])c2)cc1 [Compound 51] | 0.61 µM | 85.9 mg/kg | 
CN(C)CCOc1ccc(CNC(=O)c2ccc([N+](=O)[O-])cc2)cc1 [Compound 52] | 0.45 µM |  | 
CN(C)CCOc1ccc(CNC(=O)c2ccc(C#N)cc2)cc1 [Compound 53] | 0.46 µM | 77.6 mg/kg | 
CN(C)CCOc1ccc(CNC(=O)c2ccc(N(C)C)cc2)cc1 [Compound 55] | 1.3 µM |  | 
Cc1ccc(C(=O)NCc2ccc(OCCN3CCCC3)cc2)cc1 [Compound 56] | 0.32 µM |  | 
N#Cc1ccc(C(=O)NCc2ccc(OCCN3CCCC3)cc2)cc1 [Compound 57] | 0.93 µM |  | 
O=C(NCc1ccc(OCCN2CCCC2)cc1)c1cccc([N+](=O)[O-])c1 [Compound 58] | 0.42 µM |  | 
CN(C)CCOc1ccc(CNC(=O)c2ccc(Cl)cc2Cl)cc1 [Compound 59] | 0.62 µM |  | 
Cc1cc(C(=O)NCc2ccc(OCCN(C)C)cc2)ccc1[N+](=O)[O-] [Compound 62] | 0.39 µM |  | 
Cc1cc(C(=O)NCc2ccc(OCCN3CCCC3)cc2)ccc1[N+](=O)[O-] [Compound 63] | 0.5 µM |  | 
NCCc1ccc(O)c(O)c1 [Dopamine, dopamine] |  |  | Gastrointestinal transit (% ± S.E.), dopamine alone ([1]; dopamine alone 2 mg/kg i.p., no test compound (model control group)): 25.0 ± 3.4% and 35.9 ± 2.1% and 32.9 ± 3.1% and 32.1 ± 2.0% and 31.7 ± 3.2%
CCN(CC)CCNC(=O)c1cc(Cl)c(N)cc1OC [Metoclopramide HCl, 4-Amino-5-chloro-N-[(2-diethylamino)ethyl]-2-methoxybenzamide] | 6.3 µM |  | improvement of gastrointestinal transit inhibited by dopamine (in words) [1]: did not so only to a much lesser extent; Improvement (%) [1]: 27.1%; Gastrointestinal transit (% ± S.E.) [1]: 37.2 ± 3.2%; antiemetic effect ([3]; 1 mg/kg p.o.): significant antiemetic effect
COc1cc(C(=O)NCc2ccc(OCCN(C)C)cc2)cc(OC)c1OC [Trimethobenzamide HCl, N-[4-[2-(dimethylamino)ethoxy]benzyl]-3,4,5-trimethoxybenzamide] | 1.5 µM |  | improvement of gastrointestinal transit inhibited by dopamine (in words) [1]: did not so only to a much lesser extent; Improvement (%) [1]: 32.4%; Gastrointestinal transit (% ± S.E.) [1]: 38.2 ± 3.8%; antiemetic effect ([3]; 30 mg/kg p.o.): significant antiemetic effect
